Earlier results, collected in patent US6596884B2, “Synthesis of hydrogen peroxide” (University of Pittsburgh, priority 1998, dated 2003).

Details: obtained by extrapolation of the data from Santacesaria et al., Ind. Eng. Chem. Res., 1994, 33, 277

CCc1ccc2c(c1)C(=O)c1ccccc1C2=O [Entry 2-EtAQ]
kc: 0.47^(3) cm^3/(g s)
